According to US10555987B2, “GHRH agonists for the treatment of ischemic disorders” (UNIVERSITY OF MIAMI, priority 2012, dated 2020):
Marks after values point to notes of the source that are not given here. Non-standard residues stand in square brackets, D forms with d. Residues, ends and D or L forms follow the SMILES beside them. *: point of attachment. Desaminotyrosyl = O=C(CCc1ccc(O)cc1)*; NMeY = CN[C@@H](Cc1ccc(O)cc1)C(=O)O; Nle = CCCC[C@H](N)C(=O)O; Orn = NCCC[C@H](N)C(=O)O; Abu = CC[C@H](N)C(=O)O; GABA = NCCCC(=O)O

Key:
GH release [1] = assay: GH releasing potency in vivo, subcutaneous administration (Example 14, Table 12); parameters: species or system rat; details: s.c.; for Serum GH level at selected time after injection (ng/ml), 0 min / Serum GH level at selected time after injection (ng/ml), 15 min / Serum GH level at selected time after injection (ng/ml), 30 min: male rats, dose 3 μg/kg, mean ± SEM
Method: Male Sprague-Dawley rats, weighing 200-250 g, were purchased from Charles River Laboratory (Wilmington, Mass.) and used for experiments. All animal procedures were approved by the Veterans Affairs Animal Care and Use Committee and were conducted in accordance with additional institutional guidelines as well. Briefly, groups of 5-6 animals were used in each experiment. The rats were anesthetized with 50 mg/kg of sodium pentobarbital (Nembutal, Lundbeck Inc., Deerfield, Ill.). Twenty min after inducing anesthesia, GHRH(1-29)NH2, JI-38, or new analogs were injected into the animals intravenously (i.v.) or subcutaneously (s.c.). The peptides were dissolved in 0.01 M acetic acid to get 1 μg/μl stock solution, and then diluted with 5% mannitol. Control rats received 5% mannitol only. Blood samples were collected from the jugular vein at selected times and were used for serum preparation. Concentrations of GH in rat sera were determined by ELISA. The relative potencies of tested peptides were calculated using GHRH(1-29)NH2 and JI-38 for comparison, whose potency was defined as 1. The equivalent dosage of GHRH(1-29)NH2 to reach the same level of serum growth hormone release after injection of the specific tested peptide was determined from a GHRH(1-29)NH2 standard curve using Origin 6.0 software. […] Serum GH was determined using the rat Growth Hormone ELISA kit (ALPCO Diagnostics, Mill Valley, Calif.) according to the manufacturer's instruction. Absorbance at 405 nm was measured by a Victor 3 Multi-label Counter (Perkin-Elmer, Waltham, Md.).

GHRH receptor [2] = biological target: T1, GHRH receptor (Homo sapiens, UniProt Q02643); assay: GHRH receptor binding, competition with 125I-labeled JV-1-42, human pituitary membrane homogenates (Table 7); parameters: Normal human pituitaries were purchased from the National Hormone and Peptide Program; tissue National Hormone and Peptide Program (A.F. Parlow, Harbor-UCLA Medical Center, Torrance, Calif.); host or cells: normal human pituitary, membrane fraction; details: for Relative affinity (Binding potency) vs JI-38: JI-38 = 1, Table 7
T1 sequence (Q02643 23-423): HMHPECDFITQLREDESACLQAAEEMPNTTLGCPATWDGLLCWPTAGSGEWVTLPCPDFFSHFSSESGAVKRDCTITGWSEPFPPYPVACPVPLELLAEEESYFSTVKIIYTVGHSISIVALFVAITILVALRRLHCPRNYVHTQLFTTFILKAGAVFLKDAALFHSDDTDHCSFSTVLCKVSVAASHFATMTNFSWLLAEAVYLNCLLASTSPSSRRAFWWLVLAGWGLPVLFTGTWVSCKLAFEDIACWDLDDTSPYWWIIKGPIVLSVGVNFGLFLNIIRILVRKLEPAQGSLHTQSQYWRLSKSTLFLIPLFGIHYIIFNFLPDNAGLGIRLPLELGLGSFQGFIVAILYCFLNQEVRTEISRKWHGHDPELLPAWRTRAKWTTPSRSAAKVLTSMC
Source text: Normal human pituitaries were purchased from the National Hormone and Peptide Program (A.F. Parlow, Los Angeles, County Harbor-UCLA Medical Center, Torrance, Calif.).

GHRH receptor [3] = biological target: T1, GHRH receptor; assay: Receptor binding in vitro, 125I-labeled [His1,Nle27]-hGHRH(1-32)NH2, membrane receptors of human anterior pituitary cells (Table 14); details: for Relative affinity (Binding potency) compared to JI-38: JI-38 = 1; for Relative affinity (Binding potency) compared to hGHRH(1-29): hGHRH(1-29)NH2 = 1
Source text: Normal human pituitary was purchased from the National Hormone and Peptide Program (UCLA Medical Center, Torrance, Calif.).

GH release [4] = assay: In vivo endocrine activity, GH release after subcutaneous administration (Table 9); details: rat, subcutaneous (s.c.) injection
Method: Subcutaneous Administration. Adult male rats were used and anesthetized with pentobarbital (6 mg/100 g, b.w.), by i.p. injection. […] Blood samples were taken from the jugular vein 5, 15 and/or 30 minutes after the injection. The blood samples were centrifuged, plasma was removed and the GH level was measured byELISA. The results are summarized in terms of potency in Table 9.

| Structure (SMILES) | Serum GH level at selected time after injection (ng/ml), 0 min (GH release [1]) [ng/mL] | Serum GH level at selected time after injection (ng/ml), 15 min (GH release [1]) [ng/mL] | Serum GH level at selected time after injection (ng/ml), 30 min (GH release [1]) [ng/mL] | Relative potency compared to GHRH(1-29), 15 min (GH release [1]) | Relative potency compared to JI-38, 15 min (GH release [1]) | Relative potency compared to GHRH(1-29), 30 min (GH release [1]) | Relative potency compared to JI-38, 30 min (GH release [1]) | Relative affinity (Binding potency) vs JI-38 (GHRH receptor [2]) | Relative affinity (Binding potency) compared to JI-38 (GHRH receptor [3]) | Relative affinity (Binding potency) compared to hGHRH(1-29) (GHRH receptor [3]) | IC50 (GHRH receptor [2]; 125I-JV-1-42, human pituitary membranes, Table 7) [nM] | GH-releasing potency after s.c. administration (in words) (GH release [1]) | GH releasing potency relative to JI-38 (=1) (GH release [4]; 15 min after) | GH releasing potency relative to JI-38 (=1) (GH release [4]; 30 min after) |
| --- | --- | --- | --- | --- | --- | --- | --- | --- | --- | --- | --- | --- | --- | --- |
| CCCC[C@H](NC(=O)[C@@H](NC(=O)[C@H](CC(=O)O)NC(=O)[C@H](CCC(N)=O)NC(=O)[C@H](CC(C)C)NC(=O)[C@H](CC(C)C)NC(=O)[C@H](CCCN)NC(=O)[C@H](CCCNC(=N)N)NC(=O)[C@H](C)NC(=O)[C@H](CO)NC(=O)[C@H](CC(C)C)NC(=O)[C@H](CCC(N)=O)NC(=O)[C@H](CC)NC(=O)[C@H](CC(C)C)NC(=O)[C@@H](NC(=O)[C@H](CCCN)NC(=O)[C@H](CCCNC(=N)N)NC(=O)[C@H](Cc1ccc(O)cc1)NC(=O)[C@H](CO)NC(=O)[C@H](CCC(N)=O)NC(=O)[C@@H](NC(=O)[C@H](Cc1ccccc1)NC(=O)[C@@H](NC(=O)[C@H](C)NC(=O)[C@H](CC(=O)O)NC(=O)[C@H](C)NC(=O)CCc1ccc(O)cc1)[C@@H](C)CC)[C@@H](C)O)C(C)C)[C@@H](C)CC)C(=O)N[C@@H](CC(=O)O)C(=O)N[C@@H](CCCNC(=N)N)C(=O)NC [Peptide P-27407, [Dat^1, Gln^8, Orn^12, Abu^15, Orn^21, Nle^27, Asp^28]hGHRH(1-29)NH—CH3] (Desaminotyrosyl-ADAIFTQSYR[Orn]VL[Abu]QLSAR[Orn]LLQDI[Nle]DR-NHMe) | 36.7 ± 10.2 | 248.0 ± 40.5 | 135.2 ± 10.8 | 69.6 | 1.10 | 122 | 1.09 | 1.45 | 0.54 | 1.52 | – | – | – | – |
| CCCC[C@H](NC(=O)[C@@H](NC(=O)[C@H](CC(=O)O)NC(=O)[C@H](CCC(N)=O)NC(=O)[C@H](CC(C)C)NC(=O)[C@H](CC(C)C)NC(=O)[C@H](CCCN)NC(=O)[C@H](CCCNC(=N)N)NC(=O)[C@H](C)NC(=O)[C@H](CO)NC(=O)[C@H](CC(C)C)NC(=O)[C@H](CCC(N)=O)NC(=O)[C@H](CC)NC(=O)[C@H](CC(C)C)NC(=O)[C@@H](NC(=O)[C@H](CCCN)NC(=O)[C@H](CCCNC(=N)N)NC(=O)[C@H](Cc1ccc(O)cc1)NC(=O)[C@H](CO)NC(=O)[C@H](CCC(N)=O)NC(=O)[C@@H](NC(=O)[C@H](Cc1ccccc1)NC(=O)[C@@H](NC(=O)[C@H](C)NC(=O)[C@H](CC(=O)O)NC(=O)[C@@H](C)NC(=O)CCc1ccc(O)cc1)[C@@H](C)CC)[C@@H](C)O)C(C)C)[C@@H](C)CC)C(=O)N[C@@H](CC(=O)O)C(=O)N[C@@H](CCCNC(=N)N)C(=O)NC [Peptide P-27408, [Dat^1, D-Ala^2, Gln^8, Orn^12, Abu^15, Orn^21, Nle^27, Asp^28]hGHRH(1-30)NH—CH3] (Desaminotyrosyl-[dA]DAIFTQSYR[Orn]VL[Abu]QLSAR[Orn]LLQDI[Nle]DR-NHMe) | 37.6 ± 15.5 | 213.3 ± 32.0 | 121.2 ± 8.4 | 57.2 | 0.91 | 100.5 | 0.90 | 7.91 | 0.53 | 1.21 | 0.55 | – | – | – |
| CCCC[C@H](NC(=O)[C@@H](NC(=O)[C@H](CC(=O)O)NC(=O)[C@H](CCC(N)=O)NC(=O)[C@H](CC(C)C)NC(=O)[C@H](CC(C)C)NC(=O)[C@H](CCCN)NC(=O)[C@H](CCCNC(=N)N)NC(=O)[C@H](C)NC(=O)[C@H](CO)NC(=O)[C@H](CC(C)C)NC(=O)[C@H](CCC(N)=O)NC(=O)[C@H](CC)NC(=O)[C@H](CC(C)C)NC(=O)[C@@H](NC(=O)[C@H](CCCN)NC(=O)[C@H](CCCNC(=N)N)NC(=O)[C@H](Cc1ccc(O)cc1)NC(=O)[C@H](CO)NC(=O)[C@@H](NC(=O)[C@@H](NC(=O)[C@H](Cc1ccccc1)NC(=O)[C@@H](NC(=O)[C@H](C)NC(=O)[C@H](CC(=O)O)NC(=O)[C@@H](C)NC(=O)[C@H](Cc1ccc(O)cc1)NC)[C@@H](C)CC)[C@@H](C)O)[C@@H](C)O)C(C)C)[C@@H](C)CC)C(=O)N[C@@H](CC(=O)O)C(=O)N[C@@H](CCCNC(=N)N)C(=O)NC [Peptide P-27410, [N—Me-Tyr^1, D-Ala^2, Thr^8, Orn^12, Abu^15, Orn^21, Nle^27, Asp^28]hGHRH (1-29)NH—CH3] (H-[NMeY][dA]DAIFTTSYR[Orn]VL[Abu]QLSAR[Orn]LLQDI[Nle]DR-NHMe) | 34.1 ± 1.2 | 334.0 ± 54.0 | 250.4 ± 28.6 | 102.5 | 1.58 | 363.2 | 3.25* | 5.24 | 2.14 | 5.98 | – | significantly higher potencies at 30 minutes than at 15 minutes | – | – |
| CCCC[C@H](NC(=O)[C@@H](NC(=O)[C@H](CC(=O)O)NC(=O)[C@H](CCC(N)=O)NC(=O)[C@H](CC(C)C)NC(=O)[C@H](CC(C)C)NC(=O)[C@H](CCCN)NC(=O)[C@H](CCCNC(=N)N)NC(=O)[C@H](C)NC(=O)[C@H](CO)NC(=O)[C@H](CC(C)C)NC(=O)[C@H](CCC(N)=O)NC(=O)[C@H](CC)NC(=O)[C@H](CC(C)C)NC(=O)[C@@H](NC(=O)[C@H](CCCN)NC(=O)[C@H](CCCNC(=N)N)NC(=O)[C@H](Cc1ccc(O)cc1)NC(=O)[C@H](CO)NC(=O)[C@H](CC(N)=O)NC(=O)[C@@H](NC(=O)[C@H](Cc1ccccc1)NC(=O)[C@@H](NC(=O)[C@H](C)NC(=O)[C@H](CC(=O)O)NC(=O)[C@H](C)NC(=O)[C@H](Cc1ccc(O)cc1)NC)[C@@H](C)CC)[C@@H](C)O)C(C)C)[C@@H](C)CC)C(=O)N[C@@H](CO)C(=O)N[C@@H](CCCNC(=N)N)C(=O)NCCCC(=O)NC [Peptide P-27415, [N—Me-Tyr^1, Orn^12, Abu^15, Orn^21, Nle^27, Gab^30]hGHRH(1-30)NH—CH3] (H-[NMeY]ADAIFTNSYR[Orn]VL[Abu]QLSAR[Orn]LLQDI[Nle]SR[GABA]-NHMe) | – | – | – | – | – | – | – | 1.44 | – | – | – | – | 0.45 | 0.41 |
